The text below walks through data of patent publication US8710252B2, “Hepodxilin analog enantiomers” (priority 2006, dated 2014).

“Also recorded” adds a separate entry of the source.

Assay [1] has as its system Caspase-3 cleavage in K562 cells. Nature of the assay: Caspase-3 cleavage in K562 cells, Western blot. The assay is classed as cell-based, human. The following applies: 10 uM, 6 h; for Cleavage of caspase-3: FIG. 7. The protocol: Cell culture: Human leukemia K562 cells, obtained from ATCC (American Type Culture Collection), were maintained in RPMI 1640 medium containing 100 units/ml penicillin G, 100 μg/ml streptomycin, 10% (v/v) fetal calf serum in a humidified atmosphere with 5% CO2 at 37° C. The ability of the cells to exclude trypan Blue dye was used to assess cell viability.
Cell treatment: K562 cells were stored in 0.5% FBS for 15 min before the experiment. The cells, 6×10^5, were treated with DMSO as vehicle, or with PBT-3, PBT-4, or compounds A, B, C and D at 10 uM/dish (8 ml). Gleevec™ (STI) was used at 5 μM/dish. All experiments were without FBS and treatment lasted 6 h at 37° C. Treatment was terminated by washing the cells with ice-cold PBS buffer by centrifugation at 500×g for 5 min. Cells were lysed in buffer containing 20 mM Tris-HCl buffer, pH 7.4, 150 NaCl, 1 mM EDTA, 1 mM EGTA, 1% Triton X-100 2.5 mM sodium pyrophosphate, 1 mM beta-glycerophosphate, 1 mM sodium orthovanadate, 1 mM PMSF and 1 μM leupeptin/1 μM Aprotinin/1 μM pepstain A, on ice for 30 min. The lysates were clarified by centrifugation at 15,000×g for 15 min at 4° C. Lysates were subjected to protein assay (BCA, Pierce) and kept at −80° C.
Western blot: Thirty micrograms of protein from each sample were taken, and SDS-PAGE sample loading buffer was added. The mixture was boiled for 5 min. After centrifugation, the samples were loaded onto 15% SDS-PAGE gel and the gel was run (BioRad Protein II) for 2-3 h at 20 mA. The protein was transferred to a Trans-blot Nitrocellulose membrane (Millipore). Protein bands on the membranes were checked visually with Ponceau S-staining to ensure equivalent protein load/transfer comparing different samples. Membranes were blocked with 5% non-fat dry milk in PBS containing 0.5% Tween-20 for 1 h at room temperature, and then incubated with 1:1000 dilution of anti-caspase-3 antibody (BD Transduction Laboratories, Mississauga, Canada) overnight at 4° C. Secondary antibody of horseradish peroxidase anti-mouse antibody was used at 1:2000 dilution. Bound antibodies were detected by using enhanced chemilluminescence (ECL kit, Amersham Pharmacia Biotech) and the membranes were exposed to Hyper film for ECL detection. The same membrane was stripped by placing in buffer containing 62.5 mM Tris-HCl, pH 6.8/2% SDS/100 mM beta-mercaptoethanol at 50° C. for 30 min. The membrane was washed 3 times with PBS containing 0.5% Tween-20. The membrane was blocked by PBS buffer containing 0.5% Tween-20 and 5% skim milk. The anti-tubulin antibody (Santa Cruz, Calif.) was diluted 1:1000 and membrane analyzed by ECL as described above.
For orientation: Immunoblotting shows a protein as a band on a membrane.

The target of assay [2] is T1, Ga14-DBD-PPAR gamma-LBD fusion protein (Homo sapiens, UniProt P37231).
T1 construct: expressed in transfected cells; host or cells: mouse embryonic fibroblasts (MEFs) or ME3 cells
T1 sequence (P37231 238-503 limits assumed): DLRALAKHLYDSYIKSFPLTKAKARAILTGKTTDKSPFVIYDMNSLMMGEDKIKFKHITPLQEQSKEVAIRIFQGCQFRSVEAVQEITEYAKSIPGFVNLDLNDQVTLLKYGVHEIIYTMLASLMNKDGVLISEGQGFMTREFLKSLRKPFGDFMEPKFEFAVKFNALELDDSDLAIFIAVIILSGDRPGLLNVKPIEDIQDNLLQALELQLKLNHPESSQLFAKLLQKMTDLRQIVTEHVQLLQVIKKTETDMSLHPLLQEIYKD
Nature of the assay: PPAR gamma transactivation assay (Gal4-PPAR gamma LBD / UASx4-TK-luc reporter). In kind it is cell-based. From the text: The UASx4-TK-luc reporter construct (where UAS refers to “upstream activator sequence”) contains four Ga14-responsive elements. The plasmid Ga14-PPAR gammaLBD encodes a Ga14-DBD-PPAR gamma-LBD fusion protein (i.e. the DNA-binding domain, DBD, of Ga14 fused to the ligand-binding domain, LBD, of PPAR gamma) capable of transactivating the UASx4-TK-luc reporter plasmid by binding to the UAS. The CMV-beta-galactosidase plasmid (where CMV is cytomegalovirus) was used for normalization of experimental values.
The cells were replated, typically in 24 well plates, so that at the time of transfection the cells were 50-70% confluent.
Briefly, per well in a 24 well plate, UASx4TKIuc (0.2 microg) Ga14-PPAR gammaLBD (or pM-hPPAR gamma-LBD; 0.1 microg) and CMV-beta-galactosidase (0.05 microg) in 30 μL DMEM (free of serum and antibiotics) was mixed with 30 microL DMEM (free of serum and antibiotics) containing 1 microL metafectenein. The mixture was incubated at room temperature for 20 min to allow formation of nucleic acid-lipid complexes and then approximately 60 micros was added to each well containing the 50-70% confluent cells. […] Cells were harvested after 12-24 hours and luciferase and beta-galactosidase activities were measured according to standard protocols.
Each experiment was carried out with triplicate samples with 0.1, 1 or 10 microM racemate or purified enantiomer.

The next assay concerns washed human platelets. Nature of the assay: I-BOP evoked human platelet aggregation in vitro with washed platelets. The assay is classed as cell-based. As to conditions: for IC50: washed human platelets, 5 ng I-BOP, compounds are methyl esters, read-out: IC50, inhibition of I-BOP evoked human platelet aggregation. The protocol:
Washed human platelets were prepared as previously described (Pace-Asciak et al., 2002). The aggregation of platelets was carried out in a conventional 4-well aggregometer with stirring of the suspension maintained at 37° C. The platelet suspension was caused to aggregate with a thromboxane stable analog, I-BOP. The isolated enantiomer compounds and their respective racemates, PBT-3 and PBT-4, were added at various concentrations to cuvettes containing 375×10^6 platelets/ml, 1 min prior to the addition of 5 ng I-BOP (Cayman Chemicals, Ann Arbor, Mich.). Aggregation was monitored for an additional 5 min.

The test system of assay [3] is human leukemic K562 cells. Nature of the assay: Inhibition of 3H-methyl thymidine incorporation (cell proliferation) in K562 cells. The assay is classed as cell-based. The following applies: for IC50: 6 h treatment, compounds are methyl esters. The protocol:
The human leukemic K562 cell line was established as previously reported (Qiao et al., 2003). Cells were maintained as suspension cultures in RPMI 1640 medium supplemented with 100 1.1/ml penicillin G, 100 μg/ml streptomycin, 10% (v/v) […] in a humidified atmosphere of 5% CO2 at 37° C. Cell viability was assessed by the exclusion of Trypan blue. Incorporation of ^3H-methyl thymidine into cell DNA was used as an assay for cell proliferation. Cells ([…]) were starved for 12 h, and were subsequently treated with the test compounds. Compounds A, B, C and D were made up at various concentrations in DMSO ([…] A, B, C and D. Concentrations were doubled for racemates PBT-3 and PBT-4) and 1 of these solutions was added/ml volume of cells. Cells were suspended in RPMI 1640 medium. At 6 h post-treatment at 37° C. the cells were fixed and denatured essentially as described in Qiao et al. (2003), harvested and passed through Whatman GF/C glass filters. The filters were washed and counted for radioactivity.
(In general: Incorporation of labelled thymidine or its analogues reports DNA synthesis.)

What is called IC50 is the concentration at which inhibition is half-maximal.

In the case of `CCCCC/C=C\CC1CC1C(O)/C=C\C/C=C\CCCC(=O)OC` (centres unmarked) [PBT-4, 10-hydroxy-11,12-cyclopropyl-eicosa-5Z,8Z,14Z-trienoic acid methyl ester, reference compound], in assay [1], the “Cleavage of caspase-3” value is “increased cleavage of caspase-3”. Moreover, the “PPAR Activation as % of positive control (Avandia)” value (from here on “PPAR Activation as %”) in assay [2] (10 microM racemate, Table 3) is given as 19 +/− 1 % of positive control (Avandia); in assay [2] (Experiment 1, 0.1 microM), 13 +/− 2 % of positive control (Avandia); in assay [2] (Experiment 1, 1 microM), 13 +/− 3 % of positive control (Avandia); in assay [2] (Experiment 1, 10 microM) it was 60 +/− 9 % of positive control (Avandia); in assay [2] (Experiment 2, 0.1 microM), 4 +/− 1 % of positive control (Avandia); in assay [2] (Experiment 2, 1 microM), 7 +/− 1 % of positive control (Avandia). Also, the “PPAR Activation as %” value in assay [2] (Experiment 2, 10 microM) was 32 +/− 1 % of positive control (Avandia); in assay [2] (Experiment 3, 0.1 microM), 7 +/− 1 % of positive control (Avandia); in assay [2] (Experiment 3, 1 microM), 15 +/− 7 % of positive control (Avandia); in assay [2] (Experiment 3, 10 microM), 33 +/− 8 % of positive control (Avandia). Also, the results for the IC50 (in the assay on washed human platelets; in assay [3]) were 0.079 ± 0.017 µM and 4.9 µM, respectively.
As for `CCCCC/C=C\C[C@H]1C[C@@H]1[C@H](O)/C=C\C/C=C\CCCC(=O)OC` [Compound A, 10R-hydroxy-11S,12S-cyclopropyl-eicosa-5Z,8Z,14Z-trienoic acid methyl ester], the “Cleavage of caspase-3 compared with Compound B” value in assay [1] is on record as “more active than Compound B”. Besides, in assay [1], the “Cleavage of caspase-3” value is “increased cleavage of caspase-3”. For the same molecule, the “PPAR gamma transactivation, result in words” value in assay [2] is recorded as “no apparent difference”. In addition, the “PPAR Activation as %” value in assay [2] (Experiment 1, 0.1 microM) was 11 +/− 4 % of positive control (Avandia); in assay [2] (Experiment 1, 1 microM) it was 14 +/− 4 % of positive control (Avandia); in assay [2] (Experiment 1, 10 microM), 63 +/− 34 % of positive control (Avandia); in assay [2] (Experiment 2, 0.1 microM), 4 +/− 1 % of positive control (Avandia); in assay [2] (Experiment 2, 1 microM), 11 +/− 1 % of positive control (Avandia); in assay [2] (Experiment 2, 10 microM), 34 +/− 1 % of positive control (Avandia). For the same molecule, the “PPAR Activation as %” value in assay [2] (Experiment 3, 0.1 microM) is given as 8 +/− 2 % of positive control (Avandia); in assay [2] (Experiment 3, 1 microM), 12 +/− 1 % of positive control (Avandia); in assay [2] (Experiment 3, 10 microM), 27 +/− 5 % of positive control (Avandia). The “Potency relative to Compound B, inhibition of platelet aggregation” value in the assay with washed human platelets (I-BOP evoked aggregation) was “nearly four times as active; also recorded: about four times more potent”. In addition, the “Potency relative to racemic PBT-3, inhibition of platelet aggregation” value with washed human platelets (I-BOP evoked aggregation) is reported as “twice as potent”; in the assay on washed human platelets (I-BOP evoked aggregation, listed as compound A) it was 2 fold. In addition, the IC50 with washed human platelets is 0.027 ± 0.007 µM; in assay [3], 3.6 µM.
Regarding `CCCCC/C=C\CC1CC1C(O)/C=C\C/C=C\CCCC(=O)OC` (stereo not drawn) [Compound C, 10R-hydroxy-11R,12R-cyclopropyl-eicosa-5Z,8Z,14Z-trienoic acid methyl ester], in assay [1], the “Cleavage of caspase-3” value was “increased cleavage of caspase-3”. The “PPAR Activation as %” value in assay [2] (Experiment 1, 0.1 microM) was 14 +/− 4 % of positive control (Avandia); in assay [2] (Experiment 1, 1 microM), 16 +/− 3 % of positive control (Avandia); in assay [2] (Experiment 1, 10 microM), 38 +/− 8 % of positive control (Avandia); in assay [2] (Experiment 2, 0.1 microM), 4 +/− 1 % of positive control (Avandia); in assay [2] (Experiment 2, 1 microM) it was 6 +/− 1 % of positive control (Avandia); in assay [2] (Experiment 2, 10 microM) it was 14 +/− 1 % of positive control (Avandia). In addition, the “PPAR Activation as %” value in assay [2] (Experiment 3, 0.1 microM) is recorded as 9 +/− 3 % of positive control (Avandia); in assay [2] (Experiment 3, 1 microM) it was 7 +/− 1 % of positive control (Avandia); in assay [2] (Experiment 3, 10 microM) it was 17 +/− 3 % of positive control (Avandia). For the same molecule, the IC50 is 0.06 ± 0.012 µM in the assay on washed human platelets and 4 µM in assay [3]. For the same molecule, in assay [3], the “Activity relative to Compound D, cell proliferation assay” value came out at 1.3 fold.
Turning to `CCCCC/C=C\CC1CC1C(O)/C=C\C/C=C\CCCC(=O)OC` (stereo not drawn) [Compound B, 10S-hydroxy-11R,12R-cyclopropyl-eicosa-5Z,8Z,14Z-trienoic acid methyl ester], in assay [1], the “Cleavage of caspase-3” value is given as “increased cleavage of caspase-3”. The “PPAR gamma transactivation, result in words” value in assay [2] is listed as “no apparent difference”. Further, the “PPAR Activation as %” value in assay [2] (Experiment 1, 0.1 microM) is 11 +/− 3 % of positive control (Avandia); in assay [2] (Experiment 1, 1 microM) it was 21 +/− 3 % of positive control (Avandia); in assay [2] (Experiment 1, 10 microM), 44 +/− 11 % of positive control (Avandia); in assay [2] (Experiment 2, 0.1 microM), 4 +/− 1 % of positive control (Avandia); in assay [2] (Experiment 2, 1 microM), 10 +/− 1 % of positive control (Avandia); in assay [2] (Experiment 2, 10 microM), 35 +/− 11 % of positive control (Avandia). Also, the “PPAR Activation as %” value is reported as 10 +/− 3 % of positive control (Avandia) in assay [2] (Experiment 3, 0.1 microM); 16 +/− 6 % of positive control (Avandia) in assay [2] (Experiment 3, 1 microM); 30 +/− 10 % of positive control (Avandia) in assay [2] (Experiment 3, 10 microM). In addition, the results for the IC50 (in the assay with washed human platelets; in assay [3]) were 0.101 ± 0.027 µM and 7.6 µM, respectively.
